Values quoted from earlier work as cited in US9066886B2, “Transdermal drug delivery system containing granisetron” (TAHO PHARMACEUTICALS, LTD., priority 2008, dated 2015).

Conditions: tablet with 1 mg of granisetron; from Korean Patent Laid-Open Publication No. 10-2005-0116365

In the case of `CN1C2CCCC1CC(NC(=O)c1nn(C)c3ccccc13)C2` (stereo not shown) [granisetron], the Cmax is listed as 3.6 ng/mL.
